Assay results from patent US12583858B2 (Genentech, Inc., priority 2015, dated 2026).

Biological target: T1, TDO2 (Homo sapiens, UniProt P48775)
T1 construct: decreased levels of NFK in SW48 cells (high TDO expressing cells)
Experiment: TDO2 cell assay (NFK GreenScreen, SW48 cells)
Type: cell-based
Details: SW48 cells (high TDO expressing), 200 uM tryptophan, 24 hours; Table 3; read-out: TDO2 Cell Fluor EC50

T1 sequence (P48775 whole entry): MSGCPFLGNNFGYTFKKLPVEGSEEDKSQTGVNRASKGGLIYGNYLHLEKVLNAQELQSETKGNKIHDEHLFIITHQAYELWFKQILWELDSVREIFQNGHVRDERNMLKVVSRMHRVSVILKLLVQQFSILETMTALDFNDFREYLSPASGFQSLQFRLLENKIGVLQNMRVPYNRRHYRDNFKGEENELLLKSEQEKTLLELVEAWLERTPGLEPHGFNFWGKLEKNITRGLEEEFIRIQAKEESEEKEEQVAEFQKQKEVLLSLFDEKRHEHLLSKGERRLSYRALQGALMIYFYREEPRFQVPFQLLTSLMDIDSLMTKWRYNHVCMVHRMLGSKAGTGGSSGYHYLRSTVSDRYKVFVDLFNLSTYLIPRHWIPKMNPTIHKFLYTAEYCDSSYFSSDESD

Compound | EC50 [µM]
NS(=O)(=O)N1CCC(O)C(C2c3ccccc3-c3cncn32)CC1 (single isomer, unassigned) [Example 101a, 4-hydroxy-5-(5H-imidazo[5,1-a]isoindol-5-yl)azepane-1-sulfonamide] | > 25
NS(=O)(=O)N1CCC(O)C(C2c3ccccc3-c3cncn32)CC1 (single isomer, unassigned) [Example 101b, 4-hydroxy-5-(5H-imidazo[5,1-a]isoindol-5-yl)azepane-1-sulfonamide] | 5.1
NS(=O)(=O)N1CCC(O)C(C2c3ccccc3-c3cncn32)CC1 (single isomer, unassigned) [Example 101c, 4-hydroxy-5-(5H-imidazo[5,1-a]isoindol-5-yl)azepane-1-sulfonamide] | > 25
OC1c2ccccc2CCC1C1c2ccccc2-c2cncn21 (single isomer, unassigned) [Example 102a] | 0.072
OC1c2ccccc2CCC1C1c2ccccc2-c2cncn21 (single isomer, unassigned) [Example 102b] | 19
OC1c2ccccc2CCC1C1c2ccccc2-c2cncn21 (single isomer, unassigned) [Example 102c] | 0.32
OC1c2ccccc2CCC1C1c2ccccc2-c2cncn21 (single isomer, unassigned) [Example 102d] | 11
O[C@@H]1c2ccccc2CC[C@H]1[C@@H]1c2ccccc2-c2cncn21 (single isomer, unassigned) [Example 102g] | 0.35
O[C@@H]1c2ccccc2CC[C@H]1[C@@H]1c2ccccc2-c2cncn21 (single isomer, unassigned) [Example 102h] | 8.4
NC(=O)c1ccc2c(n1)CCC(C1c3ccccc3-c3cncn31)C2O (single isomer, unassigned) [Example 104a] | 2.2
NC(=O)c1ccc2c(n1)CCC(C1c3ccccc3-c3cncn31)C2O (single isomer, unassigned) [Example 104b] | 0.2
NC(=O)c1ccc2c(n1)CCC(C1c3ccccc3-c3cncn31)C2O (single isomer, unassigned) [Example 104c] | 23
NC(=O)c1ccc2c(n1)CCC(C1c3ccccc3-c3cncn31)C2O (single isomer, unassigned) [Example 104d] | 14
NC(=O)c1ccc2c(n1)CCC(C1c3ccccc3-c3cncn31)C2O (single isomer, unassigned) [Example 104e] | 3.4
NC(=O)c1ccc2c(n1)CCC(C1c3ccccc3-c3cncn31)C2O (single isomer, unassigned) [Example 104f] | 8.6
NC(=O)c1ccc2c(n1)CCC(C1c3ccccc3-c3cncn31)C2O (single isomer, unassigned) [Example 104g] | 0.33
NC(=O)c1ccc2c(n1)CCC(C1c3ccccc3-c3cncn31)C2O (single isomer, unassigned) [Example 104h] | 20
NS(=O)(=O)c1ccc2c(c1)C(O)C(C1c3ccccc3-c3cncn31)CC2 (single isomer, unassigned) [Example 105a] | 12
NS(=O)(=O)c1ccc2c(c1)C(O)C(C1c3ccccc3-c3cncn31)CC2 (single isomer, unassigned) [Example 105b] | 8.6
NS(=O)(=O)c1ccc2c(c1)C(O)C(C1c3ccccc3-c3cncn31)CC2 (single isomer, unassigned) [Example 105c] | 0.077
NS(=O)(=O)c1ccc2c(c1)C(O)C(C1c3ccccc3-c3cncn31)CC2 (single isomer, unassigned) [Example 105d] | 0.044
NS(=O)(=O)c1ccc2c(c1)C(O)C(C1c3ccccc3-c3cncn31)CC2 (single isomer, unassigned) [Example 105e] | 0.46
NS(=O)(=O)c1ccc2c(c1)C(O)C(C1c3ccccc3-c3cncn31)CC2 (single isomer, unassigned) [Example 105f] | 16

Compound | EC50 [µM]
NS(=O)(=O)c1ccc2c(c1)C(O)C(C1c3ccccc3-c3cncn31)CC2 (single isomer, unassigned) [Example 105g] | 9.2
NS(=O)(=O)c1ccc2c(c1)C(O)C(C1c3ccccc3-c3cncn31)CC2 (single isomer, unassigned) [Example 105h] | 0.51
O[C@@H]1[C@@H]([C@@H]2c3ccccc3-c3cncn32)CCCC1(F)F (single isomer, unassigned) [Example 106a] | > 25
O[C@H]1[C@H]([C@H]2c3ccccc3-c3cncn32)CCCC1(F)F (single isomer, unassigned) [Example 106b] | 0.17
O[C@H]1[C@H]([C@@H]2c3ccccc3-c3cncn32)CCCC1(F)F (single isomer, unassigned) [Example 106c] | 8.1
O[C@@H]1[C@@H]([C@H]2c3ccccc3-c3cncn32)CCCC1(F)F (single isomer, unassigned) [Example 106d] | 0.93
N#Cc1cnc2c(c1)CCC(C1c3ccccc3-c3cncn31)C2O (single isomer, unassigned) [Example 107a] | 17
N#Cc1cnc2c(c1)CCC(C1c3ccccc3-c3cncn31)C2O (single isomer, unassigned) [Example 107b] | > 25
N#Cc1cnc2c(c1)CCC(C1c3ccccc3-c3cncn31)C2O (single isomer, unassigned) [Example 107c] | 21
N#Cc1cnc2c(c1)CCC(C1c3ccccc3-c3cncn31)C2O (single isomer, unassigned) [Example 107d] | 2.4
N#Cc1cnc2c(c1)CCC(C1c3ccccc3-c3cncn31)C2O (single isomer, unassigned) [Example 107e] | 23
N#Cc1cnc2c(c1)CCC(C1c3ccccc3-c3cncn31)C2O (single isomer, unassigned) [Example 107f] | 0.42
N#Cc1cnc2c(c1)CCC(C1c3ccccc3-c3cncn31)C2O (single isomer, unassigned) [Example 107g] | 0.87
N#Cc1cnc2c(c1)CC[C@H]([C@@H]1c3ccccc3-c3cncn31)[C@H]2O (single isomer, unassigned) [Example 107h] | 0.16
CCS(=O)(=O)N1CC(O)(CC2c3ccccc3-c3cncn32)C1 (single isomer, unassigned) [Example 108a] | 2.8
CCS(=O)(=O)N1CC(O)(CC2c3ccccc3-c3cncn32)C1 (single isomer, unassigned) [Example 108b] | > 25
OC1C(C2c3ccc(F)cc3-c3cncn32)CC12CCOCC2 (single isomer, unassigned) [Example 109a] | 0.62
OC1C(C2c3ccc(F)cc3-c3cncn32)CC12CCOCC2 (single isomer, unassigned) [Example 109b] | 3.9
OC1C(C2c3ccc(F)cc3-c3cncn32)CC12CCOCC2 (single isomer, unassigned) [Example 109d] | 3.7
OC1C(C2c3ccc(F)cc3-c3cncn32)CC12CCOCC2 (single isomer, unassigned) [Example 109e] | 9.5
OC1C(C2c3ccc(F)cc3-c3cncn32)CC12CCOCC2 (single isomer, unassigned) [Example 109f] | > 25
OC1C(C2c3ccc(F)cc3-c3cncn32)CC12CCOCC2 (single isomer, unassigned) [Example 109g] | 0.15
OC1C(C2c3ccc(F)cc3-c3cncn32)CC12CCOCC2 (single isomer, unassigned) [Example 109h] | > 25
